# Laboratory results reported in patent US12655150B2 (Cedilla Therapeutics, Inc., priority 2021, dated 2026).
# Counter-ions that a name gives are not always drawn.
# Test system: NCI-H226
# Assay: 72H TEAD Proliferation Assay (Cell Titer Glo 2.0)
# Assay type: cell-based
# Conditions: Homo sapiens, NCI-H226, 72 h, CTG 2.0, cell line not given (NCI-H226 responsive, NCI-H28 non-responsive)
# Outline: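 NF2-deficient NCI-H226 mesothelioma cells, TEAD-dependent, treated 72 h; NF2-wild-type NCI-H28 serves as the TEAD-independent counter-screen for off-target cytotoxicity. Viable cells quantified by CellTiter-Glo 2.0 luminescence; background and time-zero signal subtracted, GI50 from nonlinear dose-response fit.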
row,SMILES,GI50 [µM]
1,"O=C(O)c1ccc2c(c1)nc(-c1ccc(C3CCCCC3)cc1)c1nccn12 [I-62, 4-(4-Cyclohexylphenyl)imidazo[1,2-a]quinoxaline-7-carboxylic acid]",> 10
2,"O=C(O)c1ccc2c(c1)nc(-c1ccncc1)c1cccn12 [I-47, 4-(Pyridin-4-yl)pyrrolo[1,2-a]quinoxaline-7-carboxylic acid]",> 10
3,"CC(C)(C)c1ccc(-c2cncc3c(C(=O)O)c[nH]c23)cc1 [I-97, 7-(4-(tert-Butyl)phenyl)-1H-pyrrolo[3,2-c] pyridine-3-carboxylic acid]",> 10
4,"Cc1nc2ccc(C(=O)O)cc2nc1-c1ccc(C(F)(F)F)cc1 [I-422, 2-methyl-3-(4-(trifluoromethyl)phenyl)quinoxaline-6-carboxylic acid]",5 to 10
5,"CC(C)(C)c1ccc(-c2cnc3ccc(C#N)cc3n2)cc1 [I-159, 3-(4-(tert-butyl)phenyl)quinoxaline-6-carbonitrile]",> 10
6,"CC(C)(C)c1ccc(-c2nc(/C=C/c3nnn[nH]3)cn3ccnc23)cc1 [I-155, (E)-6-(2-(1H-tetrazol-5-yl)vinyl)-8-(4-(tert-butyl)phenyl)imidazo[1,2-a]pyrazine]",> 10
7,"CC(C)(C)c1ccc(-c2nc3cc(CO)ccc3n3ccnc23)cc1 [I-77, (4-(4-(tert-Butyl)phenyl)imidazo[1,2-a]quinoxalin-7-yl)methanol]",> 10
8,"CC(C)(C)c1ccc(-c2nc(CCc3nnn[nH]3)cn3ccnc23)cc1 [I-156, 6-(2-(1H-tetrazol-5-yl)ethyl)-8-(4-(tert-butyl)phenyl)imidazo[1,2-a]pyrazine]",> 10
9,"CC(C)(C)c1ccc(-c2nc3cc(C(=O)NS(C)(=O)=O)ccc3n3cccc23)cc1 [I-123, 4-(4-(tert-Butyl)phenyl)-N-(methylsulfonyl)pyrrolo[1,2-a]quinoxaline-7-carboxamide]",> 10
10,"CC(C)(C)N1CCN(c2nc3cc(C(=O)O)ccc3n3cccc23)CC1 [I-20, 4-(4-(tert-Butyl)piperazin-1-yl)pyrrolo[1,2-a]quinoxaline-7-carboxylic acid]",> 10
11,"O=C(O)c1ccc2c(c1)nc(N1CCC3(CC1)CC3)c1cncn12 [I-116, 4-(6-Azaspiro[2.5]octan-6-yl)imidazo[1,5-a]quinoxaline-7-carboxylic acid]",> 10
12,"COc1cc(N2CCC(C(F)(F)F)CC2)nc2cc(C(=O)N[C@H](C)CO)ccc12 [I-328, (R)—N-(1-hydroxypropan-2-yl)-4-methoxy-2-(4-(trifluoromethyl)piperidin-1-yl)quinoline-7-carboxamide]",1 to 5
13,"O=C(O)c1ccc2c(c1)nc(C1CCOCC1)c1nccn12 [I-69, 4-(Tetrahydro-2H-pyran-4-yl)imidazo[1,2-a]quinoxaline-7-carboxylic acid]",> 10
14,"CC(C)(C)c1ccc(-c2nc3cc(C(=O)O)ncc3n3cccc23)cc1 [I-282, 6-(4-(tert-butyl)phenyl)pyrido[4,3-e]pyrrolo[1,2-a]pyrazine-3-carboxylic acid]",1 to 5
15,"N#Cc1cc(-c2ccc(C(F)(F)F)cc2)nc2cc(C(=O)O)ccc12 [I-401, 4-cyano-2-(4-(trifluoromethyl)phenyl)quinoline-7-carboxylic acid]",5 to 10
16,"CC1(C)C2CN(c3nc4cc(C(=O)O)ccc4n4cccc34)CC21 (stereo not shown) [I-31, 4-(6,6-Dimethyl-3-azabicyclo[3.1.0]hexan-3-yl)pyrrolo[1,2-a]quinoxaline-7-carboxylic acid]",> 10
17,"CC(C)(C)c1ccc(-c2nc3cc(S(C)(=O)=O)ccc3n3cccc23)cc1 [I-323, 4-(4-(tert-butyl)phenyl)-7-(methylsulfonyl)pyrrolo[1,2-a]quinoxaline]",1 to 5
18,"CNC(=O)c1cn2ccnc2c(-c2ccc(C(C)(C)C)cc2)n1 [I-143, 8-(4-(tert-Butyl)phenyl)-N-methylimidazo[1,2-a]pyrazine-6-carboxamide]",> 10
19,"CC(=O)Nc1ccc2c(c1)nc(-c1ccc(C(C)(C)C)cc1)c1nccn12 [I-135, N-(4-(4-(tert-butyl)phenyl)imidazo[1,2-a]quinoxalin-7-yl)acetamide]",1 to 5
20,"COc1cc(-c2ccc(C(F)(F)F)cc2)nc2cc(-c3ccccn3)ccc12 [I-418, 4-Methoxy-7-(pyridin-2-yl)-2-(4-(trifluoromethyl)phenyl)quinoline]",5 to 10

# Further lines, results first:
row,GI50 [µM],SMILES
1,1 to 5,"CC(C)(C)c1ccc(-c2nc3cc(C(=O)O)ccc3n3ncnc23)cc1 [I-287, 4-(4-(tert-butyl)phenyl)-[1,2,4]triazolo[1,5-a]quinoxaline-7-carboxylic acid]"
2,≤ 1,"C=CC(=O)Nc1ccc2c(C)cc(-c3ccc(C(F)(F)F)cc3F)nc2c1 [I-90, N-(2-(2-fluoro-4-(trifluoromethyl)phenyl)-4-methylquinolin-7-yl)acrylamide]"
3,1 to 5,"CC[C@H](CO)NC(=O)c1ccc2c(OC)cc(-c3ccc(C(F)(F)F)cc3OC)nc2c1 [I-342, (R)—N-(1-hydroxybutan-2-yl)-4-methoxy-2-(2-methoxy-4-(trifluoromethyl)phenyl)quinoline-7-carboxamide]"
4,≤ 1,"COc1cc(-c2ccc(C(F)(F)F)cc2)nc2cc(C(=O)N[C@@H](CO)C3CC3)ccc12 [I-344, (R)—N-(1-cyclopropyl-2-hydroxyethyl)-4-methoxy-2-(4-(trifluoromethyl)phenyl)quinoline-7-carboxamide]"
5,1 to 5,"C=CC(=O)Nc1ccc2ccc(-c3ccc(C(C)(C)C)cc3)nc2c1 [I-106, N-(2-(4-(tert-butyl)phenyl)quinolin-7-yl)acrylamide]"
6,≤ 1,"C=CC(=O)NCc1cn2ccnc2c(Nc2cccc(C(F)(F)F)c2)n1 [I-169, N-((8-((3-(trifluoromethyl)phenyl)amino)imidazo[1,2-a]pyrazin-6-yl)methyl) acrylamide]"
7,≤ 1,"C=CC(=O)N(C)Cc1cn2ccnc2c(-c2ccc(C(F)(F)F)cc2)n1 [I-177, N-Methyl-N-((8-(4-(trifluoromethyl)phenyl)imidazo[1,2-a]pyrazin-6-yl)methyl)acrylamide]"
8,1 to 5,"COC/C=C/C(=O)NCc1cn2ccnc2c(-c2ccc(C(F)(F)F)cc2)n1 [I-219, (E)-4-methoxy-N-((8-(4-(trifluoromethyl)phenyl)imidazo[1,2-a]pyrazin-6-yl)methyl)but-2-enamide]"
9,1 to 5,"O=C(O)c1ccc2c(c1)nc(-c1cnc(C(F)(F)F)cn1)c1cccn12 [I-198, 4-(5-(trifluoromethyl)pyrazin-2-yl)pyrrolo[1,2-a]quinoxaline-7-carboxylic acid]"
10,≤ 1,"C=CC(=O)NCc1nc(-c2ccc(C(F)(F)F)cc2F)c2ccccc2n1 [I-303, N-((4-(2-fluoro-4-(trifluoromethyl)phenyl)quinazolin-2-yl)methyl)acrylamide]"
11,1 to 5,"COc1cc(-c2ccc(C(F)(F)F)cc2)nc2cc(S(N)(=O)=O)ccc12 [I-416, 4-Methoxy-2-(4-(trifluoromethyl)phenyl)quinoline-7-sulfonamide]"
12,1 to 5,"C[C@@H](CO)NC(=O)c1ccc2c(c1)nc(-c1ccc(C(C)(C)C)cc1)c1cccn12 [I-190, (S)-4-(4-(tert-butyl)phenyl)-N-(1-hydroxypropan-2-yl)pyrrolo[1,2-a]quinoxaline-7-carboxamide]"
13,≤ 1,"O=C(O)c1ccc2c(c1)nc(N1CCC3(CC1)CC3)c1cccn12 [I-4, 4-(6-Azaspiro[2.5]octan-6-yl)pyrrolo[1,2-a]quinoxaline-7-carboxylic acid]"
14,≤ 1,"C=CC(=O)NCc1cc2ccccc2c(-c2ccc(C(F)(F)F)nc2)n1 [I-302, N-((1-(6-(trifluoromethyl)pyridin-3-yl)isoquinolin-3-yl)methyl)acrylamide]"
15,1 to 5,"COc1cc(-c2ccc(C(F)(F)F)cc2)nc2cc(C(=O)N3CCC3CO)ccc12 (single isomer, unassigned) [I-372, (2-(hydroxymethyl)azetidin-1-yl) (4-methoxy-2-(4-(trifluoromethyl)phenyl)quinolin-7-yl)methanone]"
16,1 to 5,"O=C(O)c1ccc2c(c1)nc(NC1CCCC(C(F)(F)F)C1)c1cccn12 (stereo not shown) [I-19, 4-((3-(Trifluoromethyl)cyclohexyl)amino)pyrrolo[1,2-a]quinoxaline-7-carboxylic acid]"
17,1 to 5,"O=C(O)c1ccc2c(c1)nc(N1CC3C(C1)C3C(F)(F)F)c1cccn12 (stereo not shown) [I-128, 4-(6-(Trifluoromethyl)-3-azabicyclo[3.1.0]hexan-3-yl)pyrrolo[1,2-a]quinoxaline-7-carboxylic acid hydrochloride]"
18,1 to 5,"CC(C)(C)c1ccc(-c2nc(/C=C/C(=O)O)cn3ccnc23)cc1 [I-152, (E)-3-(8-(4-(tert-butyl)phenyl)imidazo[1,2-a]pyrazin-6-yl)acrylic acid]"
19,≤ 1,"O=C(O)c1ccc2c(C3CC3)cc(-c3ccc(C(F)(F)F)cc3)nc2c1 [I-387, 4-cyclopropyl-2-(4-(trifluoromethyl)phenyl)quinoline-7-carboxylic acid]"
20,≤ 1,"C=C(F)C(=O)NCc1nc(-c2ccc(C(F)(F)F)cc2)c2cccnc2n1 [I-307, 2-fluoro-N-((4-(4-(trifluoromethyl)phenyl)pyrido[2,3-d]pyrimidin-2-yl)methyl)acrylamide]"
21,≤ 1,"COc1cc(-c2ccc(C(F)(F)F)cc2)nc2cc(C(=O)N[C@@H](CO)C(C)C)ccc12 [I-343, (R)—N-(1-hydroxy-3-methylbutan-2-yl)-4-methoxy-2-(4-(trifluoromethyl)phenyl)quinoline-7-carboxamide]"
22,≤ 1,"O=C(O)c1ccc2c(-c3cnco3)cc(-c3ccc(C(F)(F)F)cc3)nc2c1 [I-389, 4-(oxazol-5-yl)-2-(4-(trifluoromethyl)phenyl)quinoline-7-carboxylic acid]"
23,≤ 1,"COc1cc(-c2ccc(C(F)(F)F)cc2)nc2cc(C(=O)N[C@@H](CO)c3ccc(O)cc3)ccc12 [I-363, (R)—N-(2-hydroxy-1-(4-hydroxyphenyl)ethyl)-4-methoxy-2-(4-(trifluoromethyl)phenyl)quinoline-7 carboxamide]"
